Assay results taken from PubChem BioAssay AID248 (DTP/NCI, 2004).
Where “and” joins values, the source holds several entries; their conditions need not be identical. Equal entries are not always repeated. Inconclusive results and toxic doses are left out.

Tested on: L1210 leukemia ip in BDF1 mice, survival T/C
Assay: NCI In Vivo Anticancer Drug Screen. Data for tumor model L1210 Leukemia (intraperitoneal) in B6D2F1 (BDF1) mice
Conditions: endpoint: mean survival time, higher = longer survival
In short: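 Transplanted-tumor mice were given test agent; controls received vehicle only. Survival readings from the two groups were divided (treated over control).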

[1] = dose: 100.0 mg/kg/injection, schedule: Q04DX003 (ip), vehicle: Klucel (hydroxypropylcellulose) (HPC)
[2] = dose: 200.0 mg/kg/injection, schedule: Q04DX003 (ip), vehicle: Klucel (hydroxypropylcellulose) (HPC)

In the case of CCCN1C(=O)CC(=O)NC1=O, the T/C (dose: 100.0 mg/kg/injection, schedule: Q01DX001 (ip), vehicle: saline) is reported as 102 % of control, the T/C (dose: 200.0 mg/kg/injection, schedule: Q01DX001 (ip), vehicle: saline) is reported as 100 % of control and the T/C (dose: 400.0 mg/kg/injection, schedule: Q01DX001 (ip), vehicle: saline) is reported as 100 % of control.

With N#CS.[Tl] the T/C (dose: 9.5 mg/kg/injection, schedule: Q01DX001 (ip), vehicle: carboxymethylcellulose (CMC)) was 92 % of control, the T/C (dose: 19.0 mg/kg/injection, schedule: Q01DX001 (ip), vehicle: carboxymethylcellulose (CMC)) was 103 % of control and the T/C (dose: 38.0 mg/kg/injection, schedule: Q01DX001 (ip), vehicle: carboxymethylcellulose (CMC)) was 105 % of control.

For Fc1ccc(/C=N\N=C(N/N=C/c2ccc(F)cc2)N/N=C/c2ccc(F)cc2)cc1, the T/C (dose: 12.5 mg/kg/injection, schedule: Q04DX003 (ip), vehicle: saline with Tween-80) was 101 % of control, the T/C (dose: 15.0 mg/kg/injection, schedule: Q01DX Z (ip), vehicle: carboxymethylcellulose (CMC)) was 97 % of control and the T/C (dose: 25.0 mg/kg/injection, schedule: Q04DX003 (ip), vehicle: saline with Tween-80) was 101 % of control. The T/C (dose: 30.0 mg/kg/injection, schedule: Q01DX Z (ip), vehicle: carboxymethylcellulose (CMC)) was 97 % of control, the T/C (dose: 30.0 mg/kg/injection, schedule: Q01DX Z (oral), vehicle: carboxymethylcellulose (CMC)) was 100 % of control and the T/C (dose: 50.0 mg/kg/injection, schedule: Q04DX003 (ip), vehicle: saline with Tween-80) was 104 % of control. The T/C (dose: 60.0 mg/kg/injection, schedule: Q01DX Z (ip), vehicle: carboxymethylcellulose (CMC)) was 101 % of control, the T/C (dose: 60.0 mg/kg/injection, schedule: Q01DX Z (oral), vehicle: carboxymethylcellulose (CMC)) was 93 % of control and 100 % of control and the T/C [1] was 90 % of control. For the same molecule, the T/C (dose: 120.0 mg/kg/injection, schedule: Q01DX Z (ip), vehicle: carboxymethylcellulose (CMC)) was 89 % of control, the T/C (dose: 120.0 mg/kg/injection, schedule: Q01DX Z (oral), vehicle: carboxymethylcellulose (CMC)) was 98 % of control and 100 % of control and the T/C [2] was 100 % of control. The T/C (dose: 240.0 mg/kg/injection, schedule: Q01DX Z (oral), vehicle: carboxymethylcellulose (CMC)) was 102 % of control and 105 % of control and the T/C (dose: 400.0 mg/kg/injection, schedule: Q04DX003 (ip), vehicle: Klucel (hydroxypropylcellulose) (HPC)) was 87 % of control.

In the case of C1=C(c2ccccc2)CCC1, the T/C (dose: 50.0 mg/kg/injection, schedule: Q01DX009 (ip), vehicle: Klucel (hydroxypropylcellulose) (HPC)) is reported as 97 % of control, the T/C (dose: 100.0 mg/kg/injection, schedule: Q01DX009 (ip), vehicle: Klucel (hydroxypropylcellulose) (HPC)) is reported as 97 % of control and the T/C [1] is reported as 97 % of control. For the same molecule, the T/C (dose: 200.0 mg/kg/injection, schedule: Q01DX009 (ip), vehicle: Klucel (hydroxypropylcellulose) (HPC)) was 100 % of control and the T/C [2] was 101 % of control.

In the case of CC(=O)O[C@H]1CCCC[C@@H]1NC(=O)N(CCCl)N=O, the T/C (dose: 4.4 mg/kg/injection, schedule: Q01DX001 (ip), vehicle: carboxymethylcellulose (CMC)) is reported as 118 % of control, the T/C (dose: 6.7 mg/kg/injection, schedule: Q01DX001 (ip), vehicle: carboxymethylcellulose (CMC)) is reported as 175 % of control and the T/C (dose: 10.0 mg/kg/injection, schedule: Q01DX001 (ip), vehicle: carboxymethylcellulose (CMC)) is reported as 194 % of control. For the same molecule, the T/C (dose: 15.0 mg/kg/injection, schedule: Q01DX001 (ip), vehicle: carboxymethylcellulose (CMC)) was 313 % of control and 338 % of control, the T/C (dose: 27.0 mg/kg/injection, schedule: Q01DX001 (ip), vehicle: carboxymethylcellulose (CMC)) was 446 % of control and the T/C (dose: 40.0 mg/kg/injection, schedule: Q01DX001 (ip), vehicle: carboxymethylcellulose (CMC)) was 404 % of control. For the same molecule, the T/C (dose: 60.0 mg/kg/injection, schedule: Q01DX001 (ip), vehicle: carboxymethylcellulose (CMC)) was 196 % of control.

In the case of O=[N+]([O-])C1CC=CCC1c1ccc(C2CC=CCC2[N+](=O)[O-])cc1 (stereo not given), the T/C (dose: 100.0 mg/kg/injection, schedule: Q01DX001 (ip), vehicle: carboxymethylcellulose (CMC)) is reported as 96 % of control, the T/C (dose: 200.0 mg/kg/injection, schedule: Q01DX001 (ip), vehicle: carboxymethylcellulose (CMC)) is reported as 94 % of control and the T/C (dose: 400.0 mg/kg/injection, schedule: Q01DX001 (ip), vehicle: carboxymethylcellulose (CMC)) is reported as 92 % of control.
